Here are results for 1 compound from patent US5739158A, “Nitrogen-containing cyclohetero cycloalkylaminoaryl derivatives for CNS disorders” (The United States of America as represented by the …, priority 1992, dated 1998).

For one test, the target named is T1, sigma receptor (Rattus norvegicus, UniProt Q9R0C9).
T1 construct: Brains from male Sprague-Dawley rats were homogenized; from tissue; host or cells: rat brain crude membranes (male Sprague-Dawley)
The test can be described thus: Radioreceptor assay in rat brain homogenate, displacement of [3H]-(+)-3-PPP. It counts as binding. The conditions noted are these: rat brain membranes; 2 nM [3H]-(+)-3-PPP; 1 hr, room temperature; units ± SEM; read-out: Ki apparent. As for the experimental part:
Acad. Sci., 83, 8784-8788, 1986] to determine the relative potency of the compounds interacting with the sigma receptor. To determine the effects of the compounds in a sigma receptor assay, crude membrane preparations were prepared as follows. Brains from male Sprague-Dawley rats were homogenized in 10 volumes (wt/vol) of 0.32M sucrose, using a Polytron grinder. The homogenate was centrifuged at 900×G for 10 minutes at 4° C. The supernatant was collected and centrifuged at 22,000×g for 20 minutes at 4° C. The pellet was resuspended in 10 volumes of 50 mM Tris/HCl buffer (pH 7.4) and centrifuged at 22,000×g for 20 minutes at 4° C. The pellet was resuspended in 5 mM Tris/HCl buffer (pH 7.4) to give a final concentration of 250 mg/ml of the crude material. Incubation tubes were prepared in triplicate and contained 0.1 ml of tissue suspension, 2 nM of [^3 H]-(+)-1-propyl-3-(3-hydroxyphenyl)piperidine {[^3 H]-3-(+)-PPP}, and varying concentrations of the displacing ligand (0.1-1000 nM) in a final volume of 0.5 ml. After a 1 hr incubation at room temperature, the contents of the test tubes were filtered through GS filter paper which had been presoaked for at least 2 hours in 0.05% polyethyleneamine. The test tubes were rinsed three times with Tris/HCl buffer. Radioactivity on the filters was determined and […] were calculated from inhibition curves using the method of Cheng and Prusoff [Biochem. Pharmacol., 22, 3099-3108, 1973].
A general note: Displacement assays read how much labelled ligand stays bound in the presence of the test substance.

The next test deals with T2, sigma receptors (Cavia porcellus, UniProt Q60492).
T2 construct: crude synaptosomal (P2) membrane fraction of guinea pig brain for sigma receptors; tissue Pel-Freeze, Rogers, Ak; host or cells: guinea pig brain minus cerebellum, crude synaptosomal (P2) membranes
T2 sequence (Q60492 whole entry): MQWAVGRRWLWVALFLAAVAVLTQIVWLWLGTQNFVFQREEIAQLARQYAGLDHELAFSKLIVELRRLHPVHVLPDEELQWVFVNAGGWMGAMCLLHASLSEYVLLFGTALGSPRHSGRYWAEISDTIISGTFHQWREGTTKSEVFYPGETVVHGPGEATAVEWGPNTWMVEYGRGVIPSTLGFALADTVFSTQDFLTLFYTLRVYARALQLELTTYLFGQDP
As to the kind of experiment: Radioreceptor assay in guinea pig brain homogenate (P2 membranes), [3H]-(+)-3-PPP. It counts as binding.

Test [1] has as its system apomorphine-induced climbing. As to the kind of experiment: Blockage of apomorphine-induced climbing. The conditions noted are these: 10 mg/kg; apomorphine 2 mg/kg s.c.; i.p. or s.c. pretreatment. Type of test: in vivo, mouse (Swiss-Webster). As for the experimental part: Compounds of the invention were evaluated for their ability to block apomorphine-induced climbing. The evaluation of the compounds followed the method outlined by Protais [Psychopharmcol., 50, 1-6, 1976]. Swiss-Webstermice, weighing 20-25 g, are pretreated with the compounds of the invention by i.p. or s.c. administration at various times before 2 mg/kg apomorphine is administered s.c. in a volume of 1 ml/kg. All test compounds are administered in a volume of 10 ml/kg. Mice are rated at 10 and 20 minutes after apomorphine administration using the following rating scale: (0) forepaws on the floor, (1) forefeet holding the bars, and (2) four paws holding bars. Dose-response curves are analyzed by a computerized Finney assay [Statistical Methods in Biological Assays, 2nd Edn., Hatner Pub. Co., New York (1964)].

Test [2] deals with CA1 region of the hippocampus. As to the kind of experiment: Forebrain ischemia assay (bilateral carotid occlusion). The conditions noted are these: 50 mg/kg i.p. 30 minutes prior to carotid occlusion (15 min); 7 days; p<0.01. It counts as in vivo, Mongolian gerbil. As for the experimental part: Male Mongolian gerbils, 50-70 gm, were used as subjects. Compound No. 8 (50 mg/kg) was injected i.p. 30 minutes prior to carotid occlusion into 6 gerbils. In preparation for surgical procedures, the animals were lightly anesthetized with halothane and placed upside down on a heated pad with their snout within a nosecone. Nitrous oxide (70%): oxygen (30%) plus 0.5% halothane was circulated through the nosecone to provide continuous anesthesia throughout the surgical procedure. A midline incision was made in the neck and the carotid arteries were exposed. A length of suture thread was placed under each carotid. The thread was then tightened around each carotid and pressure applied to the thread to insure flow as occluded. Flow was occluded for 15 minutes and then the thread was removed. The carotids were visually inspected to confirm that reflow had occurred. The wound was then closed with autoclips and the gerbils allowed to recover. Following surgery, the gerbils were kept alive for 7 days. […] The degree of lesion in the CA1 region of the hippocampus was quantified by counting the pyramidal cell bodies in a 0.5 mm length of CA1 on the section corresponding to P 1.7 mm in the atlas of Loskota, Lnax and Verity [W. J. Loskota et al, A Stereotaxic Atlas of the Mongolian Gerbil Brain, Ann Arbor Science Publishers, Ann Arber, p. […]

T1 sequence (Q9R0C9 whole entry): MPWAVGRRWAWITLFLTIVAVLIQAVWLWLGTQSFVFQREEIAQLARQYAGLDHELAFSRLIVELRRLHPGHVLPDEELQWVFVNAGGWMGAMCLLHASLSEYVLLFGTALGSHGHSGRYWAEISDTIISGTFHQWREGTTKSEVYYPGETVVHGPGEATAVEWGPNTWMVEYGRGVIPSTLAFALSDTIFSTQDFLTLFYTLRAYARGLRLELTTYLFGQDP

With `CN(CCc1ccc(Cl)c(Cl)c1)[C@@H]1CCCC[C@@H]1N1CCCC1` [Compound No. 8, 1R,2S-(+)-cis-N-[2-(3,4-dichlorophenyl)ethyl]-N-methyl-2-(1-pyrrolidinyl)cyclohexylamine], the Ki at sigma receptor was 20 ± 1 nM; at sigma receptors, 6 ± 3 nM. In addition, the “Blockage of apomorphine-induced climbing” value in test [1] is on record as “completely blocked”. Further, in test [2], the “Cell loss in CA1 region of hippocampus” value was “significantly reduced”.
